Measurements taken from patent publication US20250368639A1, “SOLID FORMS OF A COMPOUND FOR TREATING OR PREVENTING HYPERURICEMIA OR GOUT” (ATOM THERAPEUTICS CO., LTD, priority 2022, published 2025).
≈ marks a conversion by molar mass, not a printed value. Read-outs that look alike come from different tables or passages of the source.

Tests used:
[1] = Dynamic vapor sorption/desorption (DVS); format: physicochemical; settings: 25° C., 85% RH
Experimental: Moisture sorption/desorption data were collected on a SMS DVS intrinsic Vapor Sorption Analyzer under a nitrogen purge. The DVS experiment generally includes a moisture sorption step and a moisture desorption step. […] In other words, the sample is considered to have reached an equilibrium between moisture sorption and desorption under the relative humidity when dm/dt≤0.01%. The sample was maintained at the temperature of 25° C. with relative humidity varied from 0% to 95%, and back to 0% at an increment of 5% RH each step.

[2] = Slurry stability in purified water (XRPD); format: physicochemical; settings: stirred overnight at room temperature
Experimental: About 30 mg of Form land Form 5D, Form 6, and Form 8 were mixed with about 2.5 ml of purified water, and the mixtures were stirred for overnight at room temperature. The wet solids were isolated by centrifugation, and further dried in vacuum for 2.5 hours before being analyzed with XRPD.

[3] = Solid state stability under stress conditions (XRPD, HPLC); format: physicochemical; settings: closed vial about 60° C.; closed vial about 40° C./75% RH; 1 week and 2 weeks
Experimental: Form 1. Form 2, Form 6, Form 8, and Form 11 were each placed under following stress conditions: (1) in a closed vial at a temperature of about 60° C., and (2) in a closed vial at a temperature of about 40′° C. and a humidity of about 75% RH. The solids were analyzed with XRPD at 1 week and 2 weeks intervals.
Additionally, all forms were analyzed with HPLC for impurity at the 1 week and 2 weeks intervals. In a typical analysis, about 5 mg of forms were each dissolved in 10 ml of diluents with the aid of sonication for 2 minutes. THF was used as the diluent for Form 1, and methanol was used as the diluent for Form 6, Form 8, and Form 11. The HPLC analysis utilized Agilent Eclipse XDB-C18 4.6*150 mm. 3.5 μm at 30° C., a mobile phase of a gradient between 0.1% H3PO4 and acetonitrile (9:1 to 2:8 to 9:1), an injection volume of 10 μl, a flow rate of 1.0 ml/min, and a detection wavelength of 214 nm.
Form 2 was further subject to the stability test in an open vial at 40° C. and a relative humidity of 75% RH.

[4] = Solubility in water, buffers and bio-relevant media (37° C., 24 h shaking, HPLC); format: physicochemical; settings: for Solubility: 37° C., 24 h; for Appearance / solubility in water: shaken about 24 hours, compared with Form 1
Experimental: The solubility of Form 1, Form 2, Form 5D, Form 6, Form 8, and Form 11 was analyzed in water, 0.1NaqueousHCl, pH4.5 acetate buffer solution, pH6.8 phosphate buffer solution, simulated gastric fluid (SGF), Fasted State Simulated Intestinal Fluid (FaSSIF), and Fed State Simulated Intestinal Fluid (FeSSIF).
About 5 mg or 10 mg of sample was weighed out into each vial and mixed with about 5 ml of medium to form a solution. The target concentration for the potassium salt in water was 2 mg/ml; and the target concentration for all other forms were 1 mg/mL. All samples were kept shaking at 200 rounds per minute (rpm) under 37° C. for 24 hours. The pH value of these samples were determined after shaking for 24 hours. Subsequently, they were centrifuged at the speed of 12000 rpm for 2 mins. The supernatant was diluted with methanol as necessary, and the concentrations were determined by HPLC. When the solubility of potassium salt was tested in water, the supernatant was diluted 100 times, while no other samples were diluted. The HPLC analysis utilizes Agilent Eclipse XDB-C8 4.6*150 mm, 5 μm column at 40° C., a mobile phase of 0.1% TFA: ACN=70:30, an injection volume of 10 μl, a flow rate of 1.0 ml/min, a diluent of methanol, and a detection wavelength of 234 nm.

[5] = Single-dose pharmacokinetic study, oral and intravenous, in SD rats; format: in vivo, SD rat; settings: for AUC(0-inf): read-out: AUCINF—pred; for half-life: read-out: HL_Lambda_z (T1/2) (converted); for Vd/F: read-out: Vz—F—pred;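 for AUClast: AUClast in h·ng/mL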
Experimental: Form 1, Form 2, and Form 5D were each evaluated via a single-dose pharmacokinetic study following oral and intravenous administration in SD rats. […] Form 1, Form 2, and Form 5Dwere evaluated by rat pharmacokinetics study.
Male SD rat was purchased from Shanghai Sippr B&K Laboratory Animals Co., Ltd. The weight was 180 g˜200 g.
20% HP-β-CD was prepared from dissolving20 g of HP-β-CD (from Sigma) in 100 mL purified water. 0.5% CMC-Na was prepared from dissolving 1 g of CMC-Na (from Aladdin) in 200 mL purified water. The solutions were stored at 2-8 degree.
(§1) Group 1:4.95 mg (equivalent to 4.50 mg of anhydrous free base) of Form 1 was weighed out into a 20 ml bottle, and totally dissolved by 0.225 mL DMSO by sonication. After that, 4.275 mL of 20% HP-β-CD was added, mixed well by sonication. Finally, the pH value was adjusted to 7.0 by sodium hydroxide solution. The clear solution was obtained, and the concentration was 1 mg/mL.
Group 2:10.08 mg (equivalent to 9.164 mg of anhydrous free base) of Form 1 was weighed out into a 20 ml bottle, and then 9.164 mL of 0.5% CMC-Na was added. A white suspension was formed after sonicated by ultrasonic cell disruptor, and the concentration was 1 mg/mL.
Group 3:9.47 mg of Form 2 was weighed out into a 20 ml bottle, and then 9.470 mL of 0.5% CMC-Na was added. After sonicated, it was mixed well by homogenizer for 2 minutes. Finally, a white suspension was formed, and the concentration was 1 mg/mL.
Group 4:9.80 mg (equivalent to 8.909 mg of free base) of Form 5Dwas weighed out into a 20 mL bottle, and then 8.909 mL of 0.5% CMC-Na was added. After sonicated, it was mixed well by homogenizer for 2 minutes. Finally, a white suspension was formed, and the concentration was 1 mg/mL.
as §1, with “Group 5:1.94” for “Group 1:4.95”, “to 1.763” for “to 4.50”, “by 0.088” for “by 0.225”, “that, 1.675” for “that, 4.275”, “was 0.2” for “was 1”
The dose of intravenous administration was 1 mg/kg and 5 mg/kg, respectively. The oral dose was 10 mg/kg. Animals were fasted overnight before drug administration. After the drug administration, the rats were fed at the 4 hours.
About 150˜200 μL of blood was collected at the initial time (only intravenous), and at 0.25, 0.5, 1, 2, 4, 6, 8 and 24 h by jugular venipuncture blooding method. EDTA-K2 was selected as anticoagulant. Blood samples were centrifuged within one hour at 6000 rpm for 8 minutes (placed on wet ice before centrifugation). The supernatant was stored at −20° C. for LC-MS/MS analysis.
The computer program Microsoft Office Excel 2007 (Microsoft, USA) was used to process data and graphics. The pharmacokinetic parameters were calculated by WinNolin 6.4 software.

[6] = Suspensions for animal formulation in 0.5% CMC-Na (XRPD); format: physicochemical; settings: about 30 mg in 30 ml, sonication
Experimental: About 30 mg of Form 1, Form 2, and Form 5D were each added into a respective 40 ml glass bottle and mixed with 30 ml of 0.5% CMC-Na solution. The solids were dispersed uniformly in the solution with the aid of sonication. After that, the solids were isolated by centrifugation, dried at room temperature, and the dry solid analyzed with XRPD.

[7] = male SD rats, oral 10 mg/kg, Average (Table 11)
[8] = male, SD, rat, plasma, po, 10 mg/kg, male SD rats, oral 10 mg/kg, Average (Table 11)
[9] = male, SD, rat, plasma, po, 10 mg/kg, male SD rats, oral 10 mg/kg, individual rats 401/402/403 (c1/c2/c3)

| Structure (SMILES) | DVS (85% RH) [1] [%] | Crystal form after slurry in purified water (XRPD) [2] | XRPD pattern after stress storage [3] | Solubility ([4]; 0.1N HCl) [µg/mL] | Solubility ([4]; FaSSIF) [µg/mL] | Solubility ([4]; FeSSIF) [µg/mL] | Solubility ([4]; SGF) [µg/mL] | Solubility ([4]; Water) [µg/mL] | Solubility ([4]; pH 4.5 acetate buffer) [µg/mL] | Solubility ([4]; pH 6.8 phosphate buffer) [µg/mL] | Appearance / solubility in water [4] | also measured |
| --- | --- | --- | --- | --- | --- | --- | --- | --- | --- | --- | --- | --- |
| CCc1nc2ccccn2c1C(=O)c1cc(Br)c(O)c(C#N)c1 [Form 6, 3-bromo-5-[(2-ethylimidazo[1,2-a]pyridin-3-yl)carbonyl]-2-hydroxybenzonitrile] | 0.35 | transformed into Form 1 | substantially similar to those received at the initial time | 4.6 (≈ 12.4 µM) | 45.8 (≈ 124 µM) | 4.4 (≈ 11.9 µM) | 3.3 (≈ 8.91 µM) | 0.4 (≈ 1.08 µM) | 0.5 (≈ 1.35 µM) | 25.7 (≈ 69.4 µM) | reduced solubility in water |  |
| CCc1nc2ccccn2c1C(=O)c1cc(Br)c(O)c(C#N)c1 [Form 12, 3-bromo-5-[(2-ethylimidazo[1,2-a]pyridin-3-yl)carbonyl]-2-hydroxybenzonitrile] | 8.07 |  |  |  |  |  |  |  |  |  |  |  |
| CCc1nc2ccccn2c1C(=O)c1cc(Br)c(O)c(C#N)c1 [Form 7, 3-bromo-5-[(2-ethylimidazo[1,2-a]pyridin-3-yl)carbonyl]-2-hydroxybenzonitrile] | 1.93 |  |  |  |  |  |  |  |  |  |  |  |
| CCc1nc2ccccn2c1C(=O)c1cc(Br)c(O)c(C#N)c1 [Form 8, 3-bromo-5-[(2-ethylimidazo[1,2-a]pyridin-3-yl)carbonyl]-2-hydroxybenzonitrile] | 4.66 | transformed into Form 1 | substantially similar to those received at the initial time | 5.3 (≈ 14.3 µM) | 14.5 (≈ 39.2 µM) | 8.6 (≈ 23.2 µM) | 3.5 (≈ 9.45 µM) | 0.5 (≈ 1.35 µM) | 0.6 (≈ 1.62 µM) | 17.9 (≈ 48.4 µM) | reduced solubility in water |  |
| CCc1nc2ccccn2c1C(=O)c1cc(Br)c(O)c(C#N)c1 [Form 5D, 3-bromo-5-[(2-ethylimidazo[1,2-a]pyridin-3-yl)carbonyl]-2-hydroxybenzonitrile] | 2.14 | transformed into Form 1 |  | 8.3 (≈ 22.4 µM) | 55.8 (≈ 151 µM) | 5.4 (≈ 14.6 µM) | 7.4 (≈ 20 µM) | 0.8 (≈ 2.16 µM) | 1.3 (≈ 3.51 µM) | 47.7 (≈ 129 µM) | reduced solubility in water | Exposure and bioavailability (words, comparison) ([5]; SD rats, oral administration 10 mg/kg, 10 mg/kg): approximately the same as results from third parties; AUClast [5, 7]: 91914.8 ng·h/mL; Cl—F—pred [5, 7]: 1.83 mL/min/kg; F ([5]; male SD rats, oral 10 mg/kg, calculated by intravenous administration of 1 mg/kg, Average (Table 11)): 52.96%; Cmax [5, 8]: 8980 ng/mL; MRT last [5, 8]: 5.95 h; Tmax [5, 8]: 3.33 h; AUC(0-inf) [5, 8]: 92700 ng·h/mL; half-life [5, 8]: 3.4 h; Vd/F [5, 8]: 0.53 L/kg; AUC(0-t) [5, 9]: 84700 ng·h/mL; Cmax [5, 9]: 8540 ng/mL; MRT last [5, 9]: 6.11 h; Tmax [5, 9]: 4 h; AUC(0-inf) [5, 9]: 96600 ng·h/mL; half-life [5, 9]: 3.55 h; Vd/F [5, 9]: 0.53 L/kg; Crystal form after dispersion in 0.5% CMC-Na solution (XRPD) [6]: did not change |
| CCc1nc2ccccn2c1C(=O)c1cc(Br)c(O)c(C#N)c1 [Form 9, 3-bromo-5-[(2-ethylimidazo[1,2-a]pyridin-3-yl)carbonyl]-2-hydroxybenzonitrile] | 0.29 |  |  |  |  |  |  |  |  |  |  |  |
| CCc1nc2ccccn2c1C(=O)c1cc(Br)c(O)c(C#N)c1 [Form 11, 3-bromo-5-[(2-ethylimidazo[1,2-a]pyridin-3-yl)carbonyl]-2-hydroxybenzonitrile] | 6.18 |  | substantially similar to those received at the initial time | 6.8 (≈ 18.4 µM) | 28.4 (≈ 76.7 µM) | 3.4 (≈ 9.18 µM) | 5.8 (≈ 15.7 µM) | 1914.5 (≈ 5170 µM) | 1.7 (≈ 4.59 µM) | 31.0 (≈ 83.7 µM) | nearly clear solution in water |  |
| CCc1nc2ccccn2c1C(=O)c1cc(Br)c(O)c(C#N)c1 [Form 10, 3-bromo-5-[(2-ethylimidazo[1,2-a]pyridin-3-yl)carbonyl]-2-hydroxybenzonitrile] | 2.37 |  |  |  |  |  |  |  |  |  |  |  |
